DBAASP
≈ marks a conversion by molar mass, not a printed value. Where “and” joins values, the source holds several entries; their conditions need not be identical. Identical values can stand only once.

Legend:
Experiment in all cases: ≥ marks a high value that may be exact or a test limit, other limits are often not marked, values filed in µg/mL are converted to µM
Staphylococcus aureus = system: Staphylococcus aureus
Escherichia coli = system: Escherichia coli
Candida albicans = system: Candida albicans
[1] = system: Enterococcus faecalis ATCC 29212
[2] = system: Staphylococcus aureus ATCC 29213
[3] = system: Escherichia coli ATCC 25922
Bacillus subtilis = system: Bacillus subtilis
[4] = system: Pseudomonas aeruginosa ATCC 27853
[5] = system: Staphylococcus epidermidis ATCC 12228

| Compound | MIC (Staphylococcus aureus) | MIC (Escherichia coli) | MIC [2] | MIC [3] | other results |
| --- | --- | --- | --- | --- | --- |
| CC[C@H](C)[C@H](NC(=O)[C@H](CC(C)C)NC(=O)[C@H](Cc1cnc[nH]1)NC(=O)[C@@H](NC(=O)[C@@H](NC(=O)[C@H](C)NC(=O)CNC(=O)[C@H](CC(C)C)NC(=O)[C@H](C)NC(=O)[C@H](C)NC(=O)[C@H](CCCCN)NC(=O)CNC(=O)[C@@H](NC(=O)CNC(=O)[C@H](CCCCN)NC(=O)[C@H](CC(C)C)NC(=O)[C@@H](NC(=O)[C@H](CC(=O)O)NC(=O)[C@H](CC(C)C)NC(=O)[C@H](Cc1ccccc1)NC(=O)CN)C(C)C)C(C)C)C(C)C)[C@@H](C)O)C(=O)N[C@@H](CC(N)=O)C(=O)N[C@@H](CCC(N)=O)C(=O)NCC(=O)N[C@@H](CCC(=O)O)C(=O)N[C@@H](CCC(N)=O)C(N)=O [GFLDVLKGVGKAALGAVTHLINQGEQ] | 27.5 µM (≈ 72.5 µg/mL) | 27.5 µM (≈ 72.5 µg/mL) | – | – | MIC (Candida albicans): 55.1 µM (≈ 145 µg/mL) |
| CC[C@H](C)[C@H](NC(=O)[C@H](CC(C)C)NC(=O)[C@H](Cc1cnc[nH]1)NC(=O)[C@@H](NC(=O)[C@@H](NC(=O)[C@H](C)NC(=O)CNC(=O)[C@H](CC(C)C)NC(=O)[C@H](C)NC(=O)[C@H](C)NC(=O)[C@H](CCCCN)NC(=O)CNC(=O)[C@@H](NC(=O)CNC(=O)[C@H](CCCCN)NC(=O)[C@@H](NC(=O)[C@@H](NC(=O)[C@H](CC(=O)O)NC(=O)[C@H](CC(C)C)NC(=O)[C@H](Cc1ccccc1)NC(=O)CN)C(C)C)C(C)C)C(C)C)C(C)C)[C@@H](C)O)C(=O)N[C@@H](CC(N)=O)C(=O)N[C@@H](CCC(N)=O)C(=O)NCC(=O)N[C@@H](CCC(=O)O)C(=O)N[C@@H](CCC(N)=O)C(N)=O [GFLDVVKGVGKAALGAVTHLINQGEQ] | 111 µM (≈ 291 µg/mL) | 55.5 µM (≈ 145 µg/mL) | – | – | MIC (Candida albicans): 222 µM (≈ 582 µg/mL) |
| CC[C@H](C)[C@H](NC(=O)[C@H](Cc1c[nH]c2ccccc12)NC(=O)CNC(=O)[C@H](CCCCN)NC(=O)CNC(=O)[C@H](Cc1ccccc1)NC(=O)[C@H](Cc1cnc[nH]1)NC(=O)[C@H](C)NC(=O)[C@H](C)NC(=O)[C@H](C)NC(=O)[C@H](CCCCN)NC(=O)CNC(=O)[C@H](Cc1ccccc1)NC(=O)[C@H](CCCCN)NC(=O)[C@H](C)NC(=O)[C@@H](NC(=O)CN)C(C)C)C(=O)N[C@@H](CCCCN)C(=O)N[C@@H](CCC(=O)O)C(=O)N[C@@H](CCSC)C(=O)N[C@@H](CC(C)C)C(=O)N[C@@H](CC(N)=O)C(=O)N[C@@H](CO)C(N)=O [GVAKFGKAAAHFGKGWIKEMLNS] | – | – | > 76 µM | > 76 µM | MIC [4]: > 76 µM |
| CC[C@H](C)[C@H](NC(=O)[C@H](CO)NC(=O)[C@H](C)NC(=O)[C@@H](NC(=O)[C@H](CCCCN)NC(=O)[C@H](CCCCN)NC(=O)[C@H](Cc1c[nH]c2ccccc12)NC(=O)[C@H](CC(N)=O)NC(=O)[C@@H](N)CCCCN)[C@@H](C)CC)C(=O)NCC(=O)N[C@@H](CCCCN)C(=O)N[C@@H](CCC(=O)O)C(=O)N[C@H](C(=O)N[C@@H](CC(C)C)C(=O)N[C@@H](CCCCN)C(=O)N[C@@H](C)C(=O)N[C@@H](CC(C)C)C(N)=O)C(C)C [KNWKKIASIGKEVLKAL] | – | 12.5 µM (≈ 24.1 µg/mL) | – | – | MIC (Bacillus subtilis): ≥ 60 µM |
| CC(=O)N[C@@H](CCCCN)C(=O)N[C@@H](Cc1ccc(O)cc1)C(=O)N[C@H](C(=O)NCC(=O)N[C@@H](CCCCN)C(=O)N[C@@H](CS)C(=O)N[C@H](C(=O)N[C@@H](CCCCN)C(=O)N[C@@H](CO)C(=O)N[C@@H](CCCCN)C(=O)N[C@@H](CC(N)=O)C(=O)N[C@@H](CCC(=O)O)C(=O)N[C@@H](CS)C(=O)N[C@@H](CCCCN)C(N)=O)[C@@H](C)O)[C@@H](C)O [KYTGKCTKSKNECK] | – | – | – | – | MIC (Candida albicans): 10 µM (≈ 16.6 µg/mL) |
| CC(=O)N[C@@H](CC(C)C)C(=O)N[C@@H](CCCCN)C(=O)N[C@@H](CCCCN)C(=O)N[C@@H](CC(C)C)C(=O)N[C@@H](CC(C)C)C(=O)N[C@@H](CCCCN)C(=O)N[C@@H](CC(C)C)C(=O)N[C@@H](CC(C)C)C(=O)N[C@@H](CCCCN)C(=O)N[C@@H](CCCCN)C(=O)N[C@@H](CC(C)C)C(=O)N[C@@H](CC(C)C)C(=O)N[C@@H](CCCCN)C(=O)N[C@@H](CC(C)C)C(=O)N[C@@H](C)C(=O)NCC(N)=O [LKKLLKLLKKLLKLAG] | – | – | 20 µM (≈ 37.2 µg/mL) | 20 µM (≈ 37.2 µg/mL) | – |
| CC(=O)N[C@@H](CC(C)C)C(=O)N[C@@H](CCCCN)C(=O)N[C@@H](CCCCN)C(=O)N[C@@H](CC(C)C)C(=O)N[C@@H](CC(C)C)C(=O)N[C@@H](CCCCN)C(=O)N1CCC[C@H]1C(=O)N[C@@H](CC(C)C)C(=O)N[C@@H](CCCCN)C(=O)N[C@@H](CCCCN)C(=O)N[C@@H](CC(C)C)C(=O)N[C@@H](CC(C)C)C(=O)N[C@@H](CCCCN)C(=O)N[C@@H](CC(C)C)C(N)=O [LKKLLKPLKKLLKL] | – | – | 20 µM (≈ 34.3 µg/mL) | 20 µM (≈ 34.3 µg/mL) | – |
| CC(=O)N[C@@H](CC(C)C)C(=O)N[C@@H](CCCCN)C(=O)N[C@@H](CCCCN)C(=O)N[C@@H](CC(C)C)C(=O)N[C@@H](CC(C)C)C(=O)N1CCC[C@H]1C(=O)N[C@@H](CC(C)C)C(=O)N[C@@H](CC(C)C)C(=O)N[C@@H](CCCCN)C(=O)N[C@@H](CCCCN)C(=O)N[C@@H](CC(C)C)C(=O)N[C@@H](CC(C)C)C(=O)N[C@@H](CCCCN)C(=O)N[C@@H](CC(C)C)C(N)=O [LKKLLPLLKKLLKL] | – | – | 2.5 µM (≈ 4.26 µg/mL) | 10 µM (≈ 17 µg/mL) | – |
| CC[C@H](C)[C@H](NC(=O)CNC(=O)[C@H](CC(C)C)NC(=O)[C@@H](NC(=O)[C@H](Cc1ccc(O)cc1)NC(=O)[C@@H](NC(=O)[C@H](CO)NC(=O)[C@@H](NC(=O)[C@@H]1CCCN1C(=O)[C@@H](NC(=O)[C@@H](N)CO)C(C)C)[C@@H](C)O)C(C)C)[C@@H](C)O)C(=O)N[C@@H](CCCCN)C(=O)N[C@H](C(=O)N[C@@H](CC(C)C)C(=O)N[C@@H](Cc1c[nH]c2ccccc12)C(=O)N[C@@H](CO)C(=O)N[C@@H](C)C(=O)N[C@@H](Cc1ccc(O)cc1)C(=O)N[C@@H](CCCCN)C(=O)N[C@@H](Cc1cnc[nH]1)C(=O)N[C@@H](CCCN=C(N)N)C(=O)N[C@@H](CCCCN)C(=O)N[C@H](C(=O)N[C@H](C(=O)N[C@@H](CCC(=O)O)C(=O)N[C@@H](CCCCN)C(=O)N[C@@H](CO)C(=O)N[C@@H](Cc1ccccc1)C(=O)N[C@@H](CC(N)=O)C(=O)N[C@@H](CCCCN)C(=O)NCC(=O)N[C@@H](Cc1ccccc1)C(=O)N[C@@H](Cc1ccc(O)cc1)C(=O)N[C@@H](Cc1cnc[nH]1)C(=O)O)[C@@H](C)CC)[C@@H](C)O)[C@@H](C)CC [SVPTSVYTLGIKILWSAYKHRKTIEKSFNKGFYH] | – | – | – | – | MIC [5]: 50 µM (≈ 200 µg/mL) |

The next lines start with results.

| MIC (Staphylococcus aureus) | MIC (Escherichia coli) | MIC [2] | MIC [3] | Compound | other results |
| --- | --- | --- | --- | --- | --- |
| 214 µM (≈ 500 µg/mL) | 214 µM (≈ 500 µg/mL) | – | – | CC[C@H](C)[C@H](NC(=O)CNC(=O)[C@H](CCCCN)NC(=O)[C@@H](NC(=O)[C@H](CC(C)C)NC(=O)[C@H](CO)NC(=O)CNC(=O)[C@H](CC(C)C)NC(=O)[C@H](CC(=O)O)NC(=O)[C@H](C)NC(=O)[C@H](CCCCN)NC(=O)[C@H](CC(C)C)NC(=O)[C@@H](NC(=O)[C@H](CCC(=O)O)NC(=O)[C@H](CCCCN)NC(=O)[C@H](Cc1ccccc1)NC(=O)CN)C(C)C)C(C)C)C(=O)N[C@@H](C)C(=O)N[C@@H](C)C(=O)N[C@@H](Cc1cnc[nH]1)C(=O)N[C@H](C(=O)N[C@@H](C)C(=O)N[C@@H](CC(N)=O)C(N)=O)C(C)C [GFKEVLKADLGSLVKGIAAHVAN] | MIC (Candida albicans): > 400 µM |
| – | – | 1.94 µM and 3.89 µM | 3.89 µM and 7.77 µM | CC[C@H](C)[C@H](NC(=O)[C@H](CCCCN)NC(=O)[C@H](CCCCN)NC(=O)[C@@H](NC(=O)[C@@H](NC(=O)[C@H](CCCCN)NC(=O)[C@H](Cc1ccccc1)NC(=O)[C@H](CC(C)C)NC(=O)CN)[C@@H](C)CC)[C@@H](C)CC)C(=O)N[C@@H](Cc1c[nH]c2ccccc12)C(=O)N[C@@H](CCCCN)C(=O)N[C@@H](CO)C(=O)N[C@@H](Cc1ccccc1)C(N)=O [GLFKIIKKIWKSF] | MIC [1]: 15.5 µM and 31.1 µM |
| 22.5 µM (≈ 38.2 µg/mL) | > 180 µM | – | – | CC[C@H](C)[C@H](NC(=O)[C@H](CC(C)C)NC(=O)[C@H](C)NC(=O)[C@@H]1CCCN1C(=O)[C@H](CC(C)C)NC(=O)CN)C(=O)N[C@@H](CO)C(=O)N[C@@H](CO)C(=O)N[C@H](C(=O)N[C@@H](CCCCN)C(=O)N[C@@H](CCCN=C(N)N)C(=O)N[C@@H](CCCCN)C(=O)N[C@@H](CCCN=C(N)N)C(=O)N[C@@H](CCC(N)=O)C(=O)N[C@@H](CCC(N)=O)C(N)=O)[C@@H](C)CC [GLPALISSIKRKRQQ] | MIC (Bacillus subtilis): ≥ 45.1 µM |
| 1.57 µM (≈ 2.6 µg/mL) | 47.4 µM (≈ 78.3 µg/mL) | – | – | CC[C@H](C)[C@H](NC(=O)[C@H](CC(C)C)NC(=O)[C@H](C)NC(=O)[C@@H]1CCCN1C(=O)[C@H](CC(C)C)NC(=O)CN)C(=O)N[C@@H](CO)C(=O)N[C@@H](Cc1c[nH]c2ccccc12)C(=O)N[C@H](C(=O)N[C@@H](CCCCN)C(=O)N[C@@H](CCCN=C(N)N)C(=O)N[C@@H](CCCCN)C(=O)N[C@@H](CCCN=C(N)N)C(=O)NCC(=O)NCC(N)=O)[C@@H](C)CC [GLPALISWIKRKRGG] | MIC (Bacillus subtilis): 1.48 µM (≈ 2.45 µg/mL) |
| – | – | 96 µM (≈ 125 µg/mL) | 96 µM (≈ 125 µg/mL) | CC(C)[C@H](NC(=O)[C@H](Cc1c[nH]c2ccccc12)NC(=O)[C@H](CCCN=C(N)N)NC(=O)[C@@H](N)CCCN=C(N)N)C(=O)N[C@@H](C)C(=O)N[C@@H](Cc1c[nH]c2ccccc12)C(=O)N[C@@H](CCCN=C(N)N)C(=O)N[C@@H](CC(N)=O)C(=O)N[C@@H](CCCN=C(N)N)C(=O)O [RRWVAWRNR] | – |
